Patent publication US20210255168A1, “A METHOD OF PRECISION CANCER THERAPY” (KING FAISAL SPECIALIST HOSPITAL & RESEARCH CENTRE, priority 2018, published 2021)

Assays:
Assay type in all cases: cell-based
[1] = system: uPA mRNA in MDA-MB-231 cells; test: mRNA half-life (Actinomycin D, one-phase exponential decay); conditions: MDA-MB-231, Actinomycin D 5 μg/ml; DMSO control >6 hr
Protocol: For half-life experiments, 5 μg/ml of Actinomycin D (ActD; Sigma-Aldrich, St Louis, Mo.) was added to the cells for 1, 2, 4 and 6 h prior to extraction of total RNA using Trizol. The reverse transcription reaction and quantitative PCR were performed as described above. The half-life of mRNAs was estimated using the one-phase exponential decay method using GraphPad Prism software (GraphPad Software, San Diego, Calif.).
To study the influence of PLK-1 inhibition on ARE-containing mRNA stability, the effect of volasertib treatment on the half-life of uPA was analyzed. Half-life of uPA mRNA was reduced from >6 hr to 0.5 hr in response to volasertib treatment compared to the DMSO control (FIG. 12C). […] Compatible with the findings of the inventors, the higher the level of PLK-1, the lower the TTP expression.

[2] = system: TNF-α-ARE luciferase reporter in MDA-MB-231 cells; test: Post-transcriptional ARE luciferase reporter assay (kinase inhibitor library screen); conditions: 0.5, 2 and 5 μM, ARE and non-ARE reporters
[3] = system: ARE-containing mRNAs (uPA, IL-8, SLC2A1, uPAR, CXCR4, MMP13, PDL1, HuR) in MDA-MB-231 cells; test: RT-qPCR of ARE-containing cancer gene mRNAs; conditions: MDA-MB-231, 330 nM, 24 hr, vs DMSO
Protocol: Examples of the effect of several protein kinase inhibitors that were the outcome of the screen assay on one cancer gene, uPA, and a pro-inflammatory cytokine, IL-8 is given in FIG. 3.
These include IL-8, solute carrier family 2 member 1 (SLC2A1), uPA, uPAR, CXCR4, MMP13, PDL1, and HuR. The MDA-MB-231 cells were treated with 330 nM volasertib or DMSO for 24 hr, then quantitative RT-qPCR was performed in using FAM-labelled TaqMan probe of the above genes and normalized to GADPH (FIG. 11).
Cells were cultured in six-well plates and either treated with DMSO or drugs for 24 h. Total RNA was then extracted using Trizol reagent (TRI Reagent, Sigma-Aldrich, St Louis, Mo.). The cells were lysed directly on the culture dish by adding 1 ml of the TRI Reagent per 10 cm^2 surface area. […] The quantitative RT-QPCR was performed in multiplex in the Chroma 4 DNA Engine cycler (BioRad, Hercules, Calif., USA) using FAM-labelled TaqMan probes (Applied Biosystems, Foster City, Calif., USA) for TTP (ZFP36), HuR (ELAVL1), uPA (PLAU)-CXCR4, MMP-1, MMP-13, IL-8, PLK-1 while a VIC-labelled glyceraldehyde-3-phosphate dehydrogenase (GAPDH) probe was used as the endogenous control. Samples were amplified in triplicate and quantification of relative expression was performed using the estimation of quantitation cycle (Cq) method.

[4] = system: TNF-α-ARE luciferase reporter in MDA-MB-231 cells; test: Post-transcriptional ARE luciferase reporter assay (kinase inhibitor library screen)
Source text: Reporters were designed to be driven by the ribosomal protein subunit 30 (RPS30) promoter. The promoter was amplified using PCR with primers specific to the flanking region of the RPS30 promoter sequence. The gene structure of RPS30 was obtained from the Ribosomal Protein Database (http://ribosome.med.miyazaki-u.ac.jp). The forward and reverse primers included the restriction sites, EcoR V and SalI sites. Amplified DNA fragments were then resolved in 1.2%-1.5% agarose gel and the amplicon bands were excised, purified and cloned into the promoterless plasmid. TNF-α 3′-UTR and TNF-α ARE were used to study the role of AU-rich elements in the action of PKs inhibitors. The AU-rich sequence that comprised 250 bases from TNF-α 3′UTR (1200-1450 bp, NM_00059) was amplified by PCR using the forward primer 5′-[…]-3′ (SEQ ID NO:1) and the reverse primer 5′-[…]-3′ (SEQ ID NO:2). The TNF-α-ARE sequence was made by annealing two synthetic complementary oligonucleotides of 70 bases that correspond to TNF-α ARE. The control reporter was constructed to have the basic structure of post-transcriptional reporter except 3′UTR which lack the AU-rich element sequence like this of bovine growth hormone. Any ARE reiterations or variations can be used, with minimal sequence is AUUUA, preferably, WW(AUUUA)WW, where W=A or U. They can be also repeated as an overall, e.g., AUUUAUUA, anywhere from 0 to 10 repeats as example.
Selleckchem Kinase Inhibitor Library that includes a selection of 378 pharmacologically active inhibitors of a number of protein kinases was purchased from Selleckchem. (Houston, Tex., USA). This library is a collection of 378 kinase inhibitors some of which have been approved by the FDA. Each compound is provided as a pre-dissolved 10 mM dimethyl sulfoxide (DMSO) solution as a 96 well format tube (100 μL). The compounds were diluted by OPTI-MEM (Thermo Fisher Scientific, Waltham, Mass., USA) to a final concentration of 5 μM.
Post-transcriptional and control reporter constructs were transfected to MDA-MB-231 cells separately that were seeded in 96-well microplates at a density of 4×10^4 cells/well and incubated overnight. Using lipofectamine 2000 protocol (Invitrogen, Carlsbad, Calif., USA), the cells were transfected with 10 ng of either RPS30-luciferase-control 3′UTR or RPS30-luciferase-ARE 3′UTR reporter plasmids. After 24 h, the cells were treated with each member of protein kinase inhibitors kit for 24 h. Then, luciferase reaction was performed as prescribed by manufacture's protocol (Nano-Glo Luciferase, Promega, Madison, Wis., USA)/well. After 15 minutes, the reporters' activities were measured through the measurement of the chemiluminescence (FIG. 8) after treatment using a Zenith 3100 (Anthos Labtec, Eugendorf, Austria).
Data are presented as means±standard error of the mean (SEM). Two-sample Student's t-test was used to determine the differences between two data sets. One-way analysis of variance (ANOVA) was used to compare three or more data columns. Two-way analysis of variance was used to analyze two groups of data, each having two data columns. Analysis was performed using GraphPad Prism version 6.00 for Windows, (GraphPad Software, La Jolla Calif., USA). For high throughput screening (HTS) hit selection (protein kinase inhibitors), strictly standardized mean difference (SSMD) test was used. This statistical test measures the size of effect of each member in a group relative to the other members. It is the mean of each member divided by the standard deviation of the difference between two random values from different groups. Based on the value of SSMD, the effect of each member of the library was classified as strong (β≥5), moderate (1≤β<5), and weak (β<1). In this study, only drug with SSMD score more than or equal to 5 or less than or equal to −5, i.e. strong β, where selected in the primary screening. […]

## CC[C@@H]1C(=O)N(C)c2cnc(Nc3ccc(C(=O)N[C@H]4CC[C@H](N5CCN(CC6CC6)CC5)CC4)cc3OC)nc2N1C(C)C [volasertib]
[1]
  half-life of uPA mRNA: 30 min
[2]
  ARE-dependent mRNA regulation confirmed in later stages of screening compared to a non-ARE reporter: confirmed to be involved in ARE-dependent mRNA regulation
[3]
  expression of all ARE-containing cancer genes (IL-8, SLC2A1, uPA, uPAR, CXCR4, MMP13, PDL1, HuR): significantly reduced
[4]; primary screening, 5 μM
  reduction of TNF-ARE luciferase reporter activity: 40%
[4]; secondary screening, ARE vs non-ARE control reporter
  reduction in percent reporter activity in the secondary screening compared to the control reporter: same reduction in percent reporter activity
